What all share (assay): relative viability (nuclei count vs DMSO), 5 days (fraction); higher = more cells survive
Compound in experiment [1]: NC(=O)[C@@H](CCC(F)(F)F)N(Cc1ccc(-c2ncon2)cc1F)S(=O)(=O)c1ccc(Cl)cc1 [Avagacestat] + CC(=O)c1c(C)c2cnc(Nc3ccc(N4CCNCC4)cn3)nc2n(C2CCCC2)c1=O [Palbociclib] (partner 0.5 µM)
The method, boiled down: (§1)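 After 5 days of treatment, lung cancer cells in 1536-well plates were fixed and stained in a single step (final 0.05% Triton X-100, 1% formaldehyde, 1 ug/ml Hoechst) and their nuclei counted on 4× images. Treatment had been applied by pin tool the day after seeding as one drug alone or as a fixed anchor-drug dose with five library-drug doses (not always all listed) in √10 steps. Relative viability is the nuclei count of treated wells divided by that of vehicle wells, and values are medians of duplicate plates.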

Compound in experiment [2]: NC(=O)[C@@H](CCC(F)(F)F)N(Cc1ccc(-c2ncon2)cc1F)S(=O)(=O)c1ccc(Cl)cc1 [Avagacestat] + Cc1nc(Nc2ncc(C(=O)Nc3c(C)cccc3Cl)s2)cc(N2CCN(CCO)CC2)n1 [Dasatinib] (partner 0.075 µM)
The method, boiled down:
as §1

Compound in experiment [3]: NC(=O)[C@@H](CCC(F)(F)F)N(Cc1ccc(-c2ncon2)cc1F)S(=O)(=O)c1ccc(Cl)cc1 [Avagacestat] + Cc1nc(NC(=O)N2CCC[C@H]2C(N)=O)sc1-c1ccnc(C(C)(C)C(F)(F)F)c1 [Alpelisib] (partner 2 µM)
The method in brief: as §1

Compound in experiment [4]: NC(=O)[C@@H](CCC(F)(F)F)N(Cc1ccc(-c2ncon2)cc1F)S(=O)(=O)c1ccc(Cl)cc1 [Avagacestat] + CC(C)C[C@H](NC(=O)[C@H](Cc1ccccc1)NC(=O)c1cnccn1)B(O)O [Bortezomib] (partner 0.002 µM)
The method, boiled down:
as §1

Turning to NCI-H1792, the relative viability in experiment [1] (first compound 0.08 µM) was determined as 0.817; in experiment [1] (first compound 0.8 µM), 0.751; in experiment [1] (first compound 8 µM), 0.612; in experiment [2] (first compound 0.08 µM), 1.33; in experiment [2] (first compound 0.8 µM) it was 0.666; in experiment [2] (first compound 8 µM), 0.706. Moreover, the relative viability came to 0.871 in experiment [3] (first compound 0.08 µM); 0.618 in experiment [3] (first compound 0.253 µM); 0.774 in experiment [3] (first compound 0.8 µM); 0.541 in experiment [3] (first compound 2.53 µM); 0.562 in experiment [3] (first compound 8 µM); 1.6 in experiment [4] (first compound 0.08 µM). Moreover, the relative viability in experiment [4] (first compound 0.253 µM) was found to be 1.06; in experiment [4] (first compound 0.8 µM) it was 1.37; in experiment [4] (first compound 2.53 µM), 0.832; in experiment [4] (first compound 8 µM) it was 0.766.
Take NCI-H23: the relative viability in experiment [1] (first compound 0.08 µM) was 0.515; in experiment [1] (first compound 0.253 µM), 0.566; in experiment [1] (first compound 0.8 µM) it was 0.505; in experiment [1] (first compound 2.53 µM), 0.44; in experiment [1] (first compound 8 µM) it was 0.572; in experiment [2] (first compound 0.08 µM) it was 0.859. Further, the relative viability in experiment [2] (first compound 0.253 µM) is 0.875; in experiment [2] (first compound 0.8 µM) it was 0.937; in experiment [2] (first compound 2.53 µM), 0.733; in experiment [2] (first compound 8 µM) it was 0.912; in experiment [3] (first compound 0.08 µM), 0.912; in experiment [3] (first compound 0.253 µM), 0.766. Further, the relative viability was found to be 0.768 in experiment [3] (first compound 0.8 µM); 0.683 in experiment [3] (first compound 2.53 µM); 0.688 in experiment [3] (first compound 8 µM); 1.19 in experiment [4] (first compound 0.08 µM); 1.42 in experiment [4] (first compound 0.253 µM); 1.12 in experiment [4] (first compound 0.8 µM). For the same cell line, the figures for the relative viability in experiment [4] (first compound 2.53 µM) and in experiment [4] (first compound 8 µM) were 1 and 0.822, respectively.
On to NCI-H2126, for which the relative viability in experiment [1] (first compound 0.08 µM) was determined as 0.395; in experiment [1] (first compound 0.253 µM), 0.355; in experiment [1] (first compound 0.8 µM), 0.385; in experiment [1] (first compound 2.53 µM), 0.358; in experiment [1] (first compound 8 µM), 0.373; in experiment [2] (first compound 0.08 µM) it was 0.588. For the same cell line, the relative viability worked out at 0.587 in experiment [2] (first compound 0.253 µM); 0.606 in experiment [2] (first compound 0.8 µM); 0.467 in experiment [2] (first compound 2.53 µM); 0.582 in experiment [2] (first compound 8 µM); 0.737 in experiment [3] (first compound 0.08 µM); 0.743 in experiment [3] (first compound 0.253 µM). The relative viability amounted to 0.747 in experiment [3] (first compound 0.8 µM); 0.734 in experiment [3] (first compound 2.53 µM); 0.68 in experiment [3] (first compound 8 µM); 1.15 in experiment [4] (first compound 0.08 µM); 1.1 in experiment [4] (first compound 0.253 µM); 1.1 in experiment [4] (first compound 0.8 µM). Further, the relative viability in experiment [4] (first compound 2.53 µM) was 1.18; in experiment [4] (first compound 8 µM), 1.02.
As for LXF-289, the relative viability in experiment [1] (first compound 0.08 µM) was 0.624; in experiment [1] (first compound 0.253 µM), 0.613; in experiment [1] (first compound 0.8 µM) it was 0.612; in experiment [1] (first compound 2.53 µM), 0.578; in experiment [1] (first compound 8 µM), 0.582; in experiment [2] (first compound 0.08 µM), 0.196. In addition, the relative viability in experiment [2] (first compound 0.253 µM) was determined as 0.183; in experiment [2] (first compound 0.8 µM) it was 0.168; in experiment [2] (first compound 2.53 µM) it was 0.191; in experiment [2] (first compound 8 µM) it was 0.152; in experiment [3] (first compound 0.08 µM), 1.08; in experiment [3] (first compound 0.253 µM), 1.15. Further, the relative viability in experiment [3] (first compound 0.8 µM) is 1.04; in experiment [3] (first compound 2.53 µM), 1.1; in experiment [3] (first compound 8 µM), 0.949; in experiment [4] (first compound 0.08 µM), 1.04; in experiment [4] (first compound 0.253 µM) it was 1.1; in experiment [4] (first compound 0.8 µM), 0.972. Besides, the relative viability worked out at 0.99 in experiment [4] (first compound 2.53 µM) and 0.911 in experiment [4] (first compound 8 µM).

These data come from the supplement of paper PMC10307832.
